Measured values taken from US8008296B2, “Histamine H3 receptor agents, preparation and therapeutic uses” (Eli Lilly and Company, priority 2005, dated 2011).

Biological target: T1, human histamine 3 receptor (H3R) (Homo sapiens, UniProt Q9Y5N1)
T1 construct: expressed in transfected cells; membranes
Test: Histamine H3 Receptor Binding Assay (competitive inhibition SPA, [3H] α-methylhistamine, HEK293 H3R8 membranes)
Excerpt: The compounds of the present invention can readily be evaluated by using a competitive inhibition Scintillation Proximity Assay (SPA) based on a H3R binding assay using [3H] a methylhistamine as ligand. Stable cell lines, including but not limited to HEK can be transfected with cDNA coding for H3R to prepare membranes used for the binding assay. The technique is illustrated below (Preparation of Histamine Receptor Subtype Membranes) for the histamine receptor subtypes.
cDNA for the human histamine 3 receptor is cloned and expressed as described in (A. Preparation H1R membranes), above. Transfected cells are selected using G418 ([…]), grown, and tested for histamine binding by the SPA described above. For total binding, cells are assayed in a SPA reaction described above containing 50 mM Tris-HCL (assay buffer), pH 7.6, 1 mg wheat germ agglutinin SPA beads (Amersham Pharmacia Biotech, #RPNQ0001), and 1 nM (3H)-n-alpha-methylhistamine (NEN, NET1027) (total volume per well=200 μl). Thioperimide is added to determine non-specific binding. Several clones are selected as positive for binding, and a single clone (H3R8) is used to prepare membranes for binding studies described above. Five micrograms of protein is used per well in the SPA receptor-binding assay. […]

T1 sequence (Q9Y5N1 whole entry): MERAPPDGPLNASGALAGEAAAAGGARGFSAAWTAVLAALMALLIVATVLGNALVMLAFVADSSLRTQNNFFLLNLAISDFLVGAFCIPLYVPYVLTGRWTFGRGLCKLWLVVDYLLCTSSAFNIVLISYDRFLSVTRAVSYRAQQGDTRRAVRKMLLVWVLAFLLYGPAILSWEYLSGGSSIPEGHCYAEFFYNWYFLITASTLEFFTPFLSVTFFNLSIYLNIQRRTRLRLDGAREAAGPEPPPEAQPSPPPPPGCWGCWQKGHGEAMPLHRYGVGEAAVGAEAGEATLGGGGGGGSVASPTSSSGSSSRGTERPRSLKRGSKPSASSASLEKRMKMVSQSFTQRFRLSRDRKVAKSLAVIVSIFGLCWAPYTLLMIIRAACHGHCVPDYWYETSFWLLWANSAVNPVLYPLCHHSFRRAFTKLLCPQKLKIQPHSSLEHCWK

Ki	Structure (SMILES)
21.6 nM	CCCCNc1ccc(C(=O)N2CCCC2CN2CCCC2)cc1 (centres unmarked)
11.7 nM	O=C(c1ccc(Sc2ccncn2)cc1)N1CCCC1CN1CCCC1 (centres unmarked)
